Experimental data: patent US20240246918A1, “COMPOUNDS AND COMPOSITIONS AS EIF4E INHIBITORS AND THE USES THEREOF” (Ribometrix, Inc., priority 2022, published 2024)

What was measured:
[1] = biological target: T1, human eIF4E protein (Homo sapiens, UniProt P06730); assay: Biochemical competitive binding assay (TR-FRET competition, EDA-m7GDP-ATTO-647N probe); details: read-out: hEIF4E TR-FRET IC50
T1 construct: purchased Novus NBP-45314
In short: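 His-tagged human eIF4E (4 nM) was preincubated with Eu-anti-His antibody (2.5 nM) and added to compound (11-point, 4-fold dilutions) for 15 min. Then 5 nM EDA-m7GDP-ATTO-647N was added for 15 min, in HEPES pH 7.5, 100 mM KCl. The 665/620 TR-FRET ratio was normalized to controls, and IC50 was taken from 4-parameter fits.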

[2] = tested on: COLO 205 colorectal tumor cells; assay: Tumor cell viability inhibition assay (CellTiter-Glo 2.0, 72 hours); format: cell-based; details: COLO 205 cell viability
In short: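 COLO 205 cells (1500/well, RPMI-1640 + 10% FBS) exposed for 72 h to an 11-point, 4-fold dilution series; cellular ATP read by CellTiter-Glo 2.0 luminescence. Data normalized to DMSO and maximum-inhibition controls; IC50 from 4-parameter curve fit.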

T1 sequence (P06730 whole entry): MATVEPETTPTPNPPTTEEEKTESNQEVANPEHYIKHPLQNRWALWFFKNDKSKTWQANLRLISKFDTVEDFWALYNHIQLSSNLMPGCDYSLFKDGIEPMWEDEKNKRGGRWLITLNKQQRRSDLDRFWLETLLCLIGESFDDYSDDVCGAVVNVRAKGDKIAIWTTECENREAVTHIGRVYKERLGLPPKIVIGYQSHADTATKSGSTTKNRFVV

Row | Compound | IC50 [1] [nM] | IC50 [2] [nM] | IC50 ([2]; Homo sapiens, COLO 205, 72 h) [nM]
1 | Cc1cc(-c2cc(Cl)ccc2OCCn2c(C)nc3c(c2=O)CC(C)(N2CCC(OC(F)(F)F)CC2)CC3)c2scc(C(=O)O)c2n1 (single isomer, unassigned) [Compound 516] | < 100 | < 5000 | 
2 | Cc1cc(-c2cc(Cl)ccc2OCCn2c(C)nc3c(c2=O)CC(N2CCC4(CC2)CN(CC(F)(F)F)CCO4)CC3)c2scc(C(=O)O)c2n1 (single isomer, unassigned) [Compound 517] | < 100 |  | < 5000
3 | Cc1cc(-c2cc(Cl)ccc2OCCn2c(C)nc3c(c2=O)CC(N2CCC4(CC2)CN(CC(F)(F)F)CCO4)CC3)c2scc(C(=O)O)c2n1 (single isomer, unassigned) [Compound 518] | < 100 | < 5000 | 
4 | CO[C@@H]1CCN([C@@H]2CCc3nc(C)n(CCOc4ccc(Cl)cc4-c4cc(C)nc5c(C(=O)O)csc45)c(=O)c3C2)CC12CC2 (single isomer, unassigned) [Compound 519] | < 100 |  | > 20000
5 | CO[C@H]1CCN([C@@H]2CCc3nc(C)n(CCOc4ccc(Cl)cc4-c4cc(C)nc5c(C(=O)O)csc45)c(=O)c3C2)CC12CC2 (single isomer, unassigned) [Compound 520] | < 100 |  | < 5000
6 | CO[C@@H]1CCN([C@H]2CCc3nc(C)n(CCOc4ccc(Cl)cc4-c4cc(C)nc5c(C(=O)O)csc45)c(=O)c3C2)CC12CC2 (single isomer, unassigned) [Compound 521] | < 100 |  | 5000 to 20000
7 | CO[C@H]1CCN([C@H]2CCc3nc(C)n(CCOc4ccc(Cl)cc4-c4cc(C)nc5c(C(=O)O)csc45)c(=O)c3C2)CC12CC2 (single isomer, unassigned) [Compound 522] | < 100 |  | < 5000
8 | Cc1cc(-c2cc(Cl)ccc2OCCn2c(C)nc3c(c2=O)C[C@H](N2CCO[C@@H](CC(F)(F)F)C2)CC3)c2scc(C(=O)O)c2n1 (single isomer, unassigned) [Compound 523] | < 100 |  | < 5000
9 | Cc1cc(-c2cc(Cl)ccc2OCCn2c(C)nc3c(c2=O)C[C@@H](N2CCO[C@@H](CC(F)(F)F)C2)CC3)c2scc(C(=O)O)c2n1 (single isomer, unassigned) [Compound 524] | < 100 |  | < 5000
10 | Cc1cc(-c2cc(Cl)ccc2OCCn2c(C)nc3c(c2=O)C[C@H](N2CCO[C@H](CC(F)(F)F)C2)CC3)c2scc(C(=O)O)c2n1 (single isomer, unassigned) [Compound 525] | < 100 |  | < 5000
11 | Cc1cc(-c2cc(Cl)ccc2OCCn2c(C)nc3c(c2=O)C[C@@H](N2CCO[C@H](CC(F)(F)F)C2)CC3)c2scc(C(=O)O)c2n1 (single isomer, unassigned) [Compound 526] | < 100 |  | < 5000
12 | Cc1cc(-c2cc(Cl)ccc2OCCn2c(C)nc3c(c2=O)CC(N2CCC4(CC2)CNCCO4)CC3)c2scc(C(=O)O)c2n1 (single isomer, unassigned) [Compound 527] | < 100 |  | > 20000
13 | Cc1cc(-c2cc(Cl)ccc2OCCn2c(C)nc3c(c2=O)CC(N2CCC4(CC2)CNCCO4)CC3)c2scc(C(=O)O)c2n1 (single isomer, unassigned) [Compound 528] | < 100 | > 20000 | 
14 | Cc1cc(-c2cc(Cl)ccc2OCCn2c(C)nc3c(c2=O)CC(N2CCC4(CC2)CN(CC(F)(F)F)CC4(F)F)CC3)c2scc(C(=O)O)c2n1 (single isomer, unassigned) [Compound 529] | < 100 |  | < 5000
15 | Cc1cc(-c2cc(Cl)ccc2OCCn2c(C)nc3c(c2=O)CC(C)(N2CCC(C(F)(F)F)CC2)CC3)c2scc(C(=O)O)c2n1 (single isomer, unassigned) [Compound 530] | < 100 |  | < 5000
16 | Cc1cc(-c2cc(Cl)ccc2OCCn2c(C)nc3c(c2=O)CC(C)(N2CCC(C(F)(F)F)CC2)CC3)c2scc(C(=O)O)c2n1 (single isomer, unassigned) [Compound 531] | < 100 | < 5000 | 
17 | Cc1cc(-c2cc(Cl)ccc2OCCn2c(C)nc3c(c2=O)C[C@H](N2Cc4cc(F)c(F)cc4C2)CC3)c2scc(C(=O)O)c2n1 (single isomer, unassigned) [Compound 532] | < 100 |  | < 5000
18 | Cc1cc(-c2cc(Cl)ccc2OCCn2c(C)nc3c(c2=O)C[C@@H](N2Cc4cc(F)c(F)cc4C2)CC3)c2scc(C(=O)O)c2n1 (single isomer, unassigned) [Compound 533] | < 100 |  | < 5000

Row | Compound | IC50 [1] [nM] | IC50 [2] [nM] | IC50 ([2]; Homo sapiens, COLO 205, 72 h) [nM]
19 | Cc1nc2c(c(=O)n1CC#Cc1ccc(Cl)cc1-c1ccnc3c(C(=O)O)csc13)CC(N1CCC(OC(F)(F)F)CC1)CC2 (single isomer, unassigned) [Compound 534] | < 100 |  | < 5000
20 | Cc1nc2c(c(=O)n1CC#Cc1ccc(Cl)cc1-c1ccnc3c(C(=O)O)csc13)CC(N1CCC(OC(F)(F)F)CC1)CC2 (single isomer, unassigned) [Compound 535] | < 100 | < 5000 | 
21 | Cc1nc2c(c(=O)n1CC#Cc1ccc(Cl)cc1-c1ccnc3c(C(=O)O)csc13)C[C@@H](N1CCC[C@]3(C1)CC3(F)F)CC2 (single isomer, unassigned) [Compound 537, 7-(5-chloro-2-(3-(6-(1,1-difluoro-5-azaspiro[2.5]octan-5-yl)-2-methyl-4-oxo-5,6,7,8-tetrahydroquinazolin-3(4H)-yl)prop-1-yn-1-yl)phenyl)thieno[3,2-b]pyridine-3-carboxylic acid] | < 100 |  | 5000 to 20000
22 | Cc1nc2c(c(=O)n1CC#Cc1ccc(Cl)cc1-c1ccnc3c(C(=O)O)csc13)C[C@@H](N1CCC[C@@]3(C1)CC3(F)F)CC2 (single isomer, unassigned) [Compound 538, 7-(5-chloro-2-(3-(6-(1,1-difluoro-5-azaspiro[2.5]octan-5-yl)-2-methyl-4-oxo-5,6,7,8-tetrahydroquinazolin-3(4H)-yl)prop-1-yn-1-yl)phenyl)thieno[3,2-b]pyridine-3-carboxylic acid] | < 100 |  | < 5000
23 | Cc1cc(-c2cc(Cl)ccc2OCCn2c(C)nc3c(c2=O)C[C@@](C)(N2CCC[C@]4(C2)CC4(F)F)CC3)c2scc(C(=O)O)c2n1 (single isomer, unassigned) [Compound 539] | < 100 |  | < 5000
24 | Cc1cc(-c2cc(Cl)ccc2OCCn2c(C)nc3c(c2=O)C[C@H](N2CCCC[C@H]2c2cccc(F)c2)CC3)c2scc(C(=O)O)c2n1 (single isomer, unassigned) [Compound 540] | < 100 |  | < 5000
25 | Cc1cc(-c2cc(Cl)ccc2OCCn2c(C)nc3c(c2=O)C[C@H](N2CCCC[C@@H]2c2cccc(F)c2)CC3)c2scc(C(=O)O)c2n1 (single isomer, unassigned) [Compound 541] | < 100 |  | < 5000
26 | Cc1cc(-c2cc(Cl)ccc2OCCn2c(C)nc3c(c2=O)C[C@@H](N2CCCC[C@H]2c2cccc(F)c2)CC3)c2scc(C(=O)O)c2n1 (single isomer, unassigned) [Compound 542] | < 100 |  | < 5000
27 | Cc1cc(-c2cc(Cl)ccc2OCCn2c(C)nc3c(c2=O)C[C@@H](N2CCCC[C@@H]2c2cccc(F)c2)CC3)c2scc(C(=O)O)c2n1 (single isomer, unassigned) [Compound 543] | < 100 |  | > 20000
28 | Cc1cc(-c2cc(Cl)ccc2OCCn2c(C)nc3c(c2=O)C[C@@H](N2CCCC(F)(F)CC2)CC32CC2)c2scc(C(=O)O)c2n1 (single isomer, unassigned) [Compound 544] | < 100 |  | < 5000
29 | Cc1cc(-c2cc(Cl)ccc2OCCn2c(C)nc3c(c2=O)C[C@H](N2CCCC(F)(F)CC2)CC32CC2)c2scc(C(=O)O)c2n1 (single isomer, unassigned) [Compound 545] | < 100 |  | < 5000
30 | Cc1cc(-c2cc(Cl)ccc2OCCn2c(C)nc3c(c2=O)C[C@H](N2CCCC[C@H]2c2nccs2)CC3)c2scc(C(=O)O)c2n1 (single isomer, unassigned) [Compound 546] | < 100 |  | < 5000
31 | Cc1cc(-c2cc(Cl)ccc2OCCn2c(C)nc3c(c2=O)C[C@H](N2CCCC[C@@H]2c2nccs2)CC3)c2scc(C(=O)O)c2n1 (single isomer, unassigned) [Compound 547] | < 100 |  | < 5000
32 | Cc1cc(-c2cc(Cl)ccc2OCCn2c(C)nc3c(c2=O)C[C@@H](N2CCCC[C@H]2c2nccs2)CC3)c2scc(C(=O)O)c2n1 (single isomer, unassigned) [Compound 548] | 100 to 500 |  | > 20000
33 | Cc1cc(-c2cc(Cl)ccc2OCCn2c(C)nc3c(c2=O)C[C@@H](N2CCCC[C@@H]2c2nccs2)CC3)c2scc(C(=O)O)c2n1 (single isomer, unassigned) [Compound 549] | 100 to 500 |  | > 20000
34 | Cc1nc2c(c(=O)n1CC#Cc1ccc(Cl)cc1-c1ccnc3c(C(=O)O)csc13)C[C@H](N1CCC[C@@]3(C1)CC3(F)F)CC2 (single isomer, unassigned) [Compound 550, 7-(5-chloro-2-(3-(6-(1,1-difluoro-5-azaspiro[2.5]octan-5-yl)-2-methyl-4-oxo-5,6,7,8-tetrahydroquinazolin-3(4H)-yl)prop-1-yn-1-yl)phenyl)thieno[3,2-b]pyridine-3-carboxylic acid] | < 100 |  | < 5000
35 | CO[C@@H](C1CCN([C@@H]2CCc3nc(C)n(CCOc4ccc(Cl)cc4-c4cc(C)nc5c(C(=O)O)csc45)c(=O)c3C2)CC1)C(F)(F)F (single isomer, unassigned) [Compound 551] | < 100 |  | < 5000
